Laboratory results published in publication PMC6910946, “Multiple roles of Bet v 1 ligands in allergen stabilization and modulation of endosomal protease activity” (Allergy, 2019).
Like-named read-outs stand apart in the source and are kept apart here.

How the values were obtained:
[1] = system: human monocyte‐derived dendritic cells (moDCs); test: Activation and cytokine secretion of human moDCs; format: cell-based; conditions: Bet v 1 in complex with ligand, 24 h, no LPS co-stimulation
Description: The ability of ligand‐loaded Bet_v_1 to induce IgE‐antigen cross‐linking and basophil degranulation was assessed by mediator‐release assays using rat basophil (RBL‐2H3) cells, transfected with the human high‐affinity IgE receptor (FcεRI), as previously described.2, 24 In vitro uptake of labeled Bet_v_1 was performed using CD11c^+ murine bone marrow–derived dendritic cells (BMDCs). The maturation of human monocyte‐derived dendritic cells (moDCs) was analyzed as previously described.2 T‐cell proliferation assays using CD4^+ T‐cell hybridomas were performed as previously described.17 A detailed description of the in vitro assays is available (Appendix [Link], [Link]).
Immature moDCs from PBMCs of either healthy/non-atopic donors (n=5) or atopic patients (n=7) were isolated and cultured as described elsewhere.^6 Cell viability using the Aqua® dye (Invitrogen, Carlsbad, CA, USA), expression of CD1a (eBioscience, Inc., San Diego, CA, USA) and loss of CD14 (BD Biosciences) expression were analyzed by flow cytometry on a Navios flow cytometer (Beckman Coulter, Brea, CA, USA). Cells (1x10^6 cells/ml) were stimulated for 24 hours with 1 µg/ml of Bet v 1 either alone or in complex with one of the three ligands (DOC, PPE1 or Q3OS). As a control, unstimulated moDCs and the individual ligands without Bet v 1 were used at the same concentrations. The cell supernatant was frozen for the analysis of cytokine secretion. Of note, no LPS co-stimulation was induced. The following maturation markers were investigated: CD40 (eBioscience), HLA-DR, CD80, CD83 and CD86 (BD Biosciences). Cytokine expression of CCL17, IL-1β, IL-10 (BD Biosciences), TNFα and IL-6 (eBioscience) was determined by ELISA. Statistical analysis was performed using one-way ANOVA with a Bonferroni post-test to compare all groups. The study was approved by the ethics committee of the medical faculty of Technical University of Munich (54/17 S).

Bet_v_1 [2] = target: T1, Bet_v_1 (Betula pendula, UniProt P15494); test: Thermal stability of Bet v 1 by FTIR spectroscopy; format: physicochemical, Betula verrucosa; conditions: for ΔFTIR: change of Tm of Bet v 1 versus no ligand; for T m FTIR: melting point of Bet v 1 with or without ligand
T1 construct: made in house
T1 sequence (P15494 1-160): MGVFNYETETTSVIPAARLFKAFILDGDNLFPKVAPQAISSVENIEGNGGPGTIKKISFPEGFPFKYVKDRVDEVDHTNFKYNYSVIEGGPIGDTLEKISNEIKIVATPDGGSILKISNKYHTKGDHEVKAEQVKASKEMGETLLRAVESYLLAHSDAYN
Description: Surface acoustic wave (SAW) technology and NMR spectroscopy were used to observe the interaction of Bet_v_1 with the selected compounds, including determination of the dissociation constant (K d). The influence of ligand binding on the secondary structure elements and the thermal stability of Bet_v_1 was monitored using circular dichroism (CD, JASCO J‐815 spectropolarimeter, Jasco) and Fourier transform infrared (FTIR) spectroscopy (Tensor II FTIR system, Bruker Optics Inc). A detailed description of these methods is available (Appendix [Link], [Link]). […]
Determination of secondary structure elements and thermal stability
(§1) The influence of ligand binding on the secondary structure elements and the thermal stability of Bet v 1 was addressed by circular dichroism (CD) and Fourier transform infrared (FTIR) spectroscopy. CD spectroscopy was performed with a JASCO J-815 spectropolarimeter fitted with a PTC-423S Peltier-type single position cell holder (Jasco, Tokyo, Japan) over the wavelength range 190 to 260 nm. For measurement, Bet v 1 with and without ligand was diluted in a 10 mM potassium phosphate buffer to a concentration of 0.1 mg/ml. The thermal stability analysis was recorded at 222 nm. The protein was denatured with a temperature slope of 1° C/min from 20 to 95° C.
FTIR amide 1 and amide 2 spectra of Bet v 1 at concentrations of 1.0-2.0 mg/ml with and without ligand were recorded with an AquaSpec transmission cell adapted to a Tensor II FTIR system (Bruker Optics Inc., Billerica, MA, USA). Measurement was performed at a constant temperature (25° C), controlled by a Haake F8 thermostat (Thermo Electron, Germany) with internal temperature control. For data analysis, OPUS spectroscopy software 6.0 (Bruker Optics Inc., Billerica, MA, USA) was used. The Savitzky-Golay algorithm was applied on […]
vector-normalized amide 1 spectra (25 smoothing points) to obtain the second derivative. For the quantification of secondary structure elements, a Quant2 method of the OPUS software was used. For thermal stability analysis, spectra were recorded with a BioATR II unit (Bruker Optics Inc., Billerica, MA, USA) at 25 to 95° C (dT=2.5K). The determined relative signal change in the amide I band by creating a difference spectrum for each temperature point was used to calculate the melting point (Tm). […]

Bet_v_1 [3] = target: T1, Bet_v_1; test: Thermal stability and secondary structure of Bet v 1 by circular dichroism (CD); format: physicochemical, Betula verrucosa; conditions: for increased melting point (T m) of Bet v 1 bound to ligand: CD and FTIR spectroscopy; for ΔCD: change of Tm of Bet v 1 versus no ligand
Description: Surface acoustic wave (SAW) technology and NMR spectroscopy were used to observe the interaction of Bet_v_1 with the selected compounds, including determination of the dissociation constant (K d). The influence of ligand binding on the secondary structure elements and the thermal stability of Bet_v_1 was monitored using circular dichroism (CD, JASCO J‐815 spectropolarimeter, Jasco) and Fourier transform infrared (FTIR) spectroscopy (Tensor II FTIR system, Bruker Optics Inc). A detailed description of these methods is available (Appendix [Link], [Link]).
as §1, with “1°C/min” for “1° C/min”, “95°C.” for “95° C.”

[4] = melting point of Bet v 1 with or without ligand, 222 nm

| Structure (SMILES) | maturation marker expression and Th polarization‐associated cytokines [1] | ΔFTIR (Bet_v_1 [2]) | T m FTIR (Bet_v_1 [2]) [°C] | T m CD (Bet_v_1 [3]) [°C] | secondary structure content of Bet v 1 (Bet_v_1 [3]) | increased melting point (T m) of Bet v 1 bound to ligand (Bet_v_1 [3]) | secondary structure content of Bet v 1 (Bet_v_1 [3]; CD and FTIR, Figure S4) | ΔCD (Bet_v_1 [3]) | T m CD (Bet_v_1 [3]; [4]) [°C] |
| --- | --- | --- | --- | --- | --- | --- | --- | --- | --- |
| C[C@H](CCC(=O)O)[C@H]1CC[C@H]2[C@@H]3CC[C@@H]4C[C@H](O)CC[C@]4(C)[C@H]3C[C@H](O)[C@]12C [DOC, sodium deoxycholate, reference compound] | None of the above described readouts was influenced | +3.22 °C | 66.6 | 67.44 | did not significantly alter its secondary structure content | approximately 4 °C | – | – | – |
| O=c1c(O[C@@H]2O[C@H](CO)[C@@H](O)[C@H](O)[C@H]2O[C@@H]2O[C@H](CO)[C@@H](O)[C@H](O)[C@H]2O)c(-c2ccc(O)c(O)c2)oc2cc(O)cc(O)c12 [Q3OS, quercetin 3‐O‐sophoroside] | None of the above described readouts was influenced | +1.88 °C | 65.26 | – | – | – | did not significantly alter its secondary structure content | +0.36 °C | 64.04 |
| CCC1C(=O)CC(O)C1/C=C/C(O)CCCCCCCC(=O)O (stereo not shown) [PPE1, E1 phytoprostanes] | None of the above described readouts was influenced | +5.93 °C | 69.31 | – | – | ~7 °C | did not significantly alter its secondary structure content | +6.94 °C | 70.62 |
